Measured values published in patent US9012659B2, “3-(indolyl)- or 3-(azaindolyl)-4-arylmaleimide compounds and their use in tumor treatment” (Johannes Gutenberg—Universitat Mainz, priority 2009, dated 2015).

Columns and labels:
[1] = tested on: HT-29 human colon adenocarcinoma cells; test: Evaluation of antiproliferative effect (MTT assay); assay type: cell-based; conditions: 72 h, treatment for 3 days, untreated HT-29 cells: 100%, read-out: Decrease of HT-29 colon cancer cell viability (%)
Procedure: Cell suspensions (200 μl) containing 10,000 viable cells were plated into each well and incubated over night before exposure with various concentrations of agents. Cells were then incubated with 100 μl of different concentrations of compounds for 3 days at 37° C. with 5% CO2. At the end of the time point (3 days), 10 μl/well of MTT stock solution (5 mg/ml) (Biomol, Germany) were added. […] Each experiment was done in triplicate. […]
The antitumor efficacy of the compounds of the invention was examined against HT-29 human colon adenocarcinoma cells. […] The compound of example 1 of WO 2006/061212 was used as comparative compound.

human HT-29 cancer cells = test: Nicoletti apoptosis assay by cell cycle analysis (sub-G1 fraction); assay type: cell-based; conditions: combination: compound plus Irinotecan 1.18 μM, agent-free control 3.4 ± 0.9%
Procedure: Cancer cells were transferred to 12-well flat-bottomed plates. Cell suspensions (1 ml) containing 1.5×10^5 viable cells were plated into each well and incubated over night before exposure with various concentrations of agents. Cells were then incubated in 1 ml medium with various concentrations of single applied moguntinones, irinotecan alone, or with the combinations of moguntinones with irinotecan or topotecan at 37° C. with 5% CO2.
After incubation cells were washed with PBS, trypsinizated, palleted and mixed with propidium-iodide-buffer (containing 0.1% sodium citrate, 0.1% triton X-100, […] propidium-iodide) and incubated for 1 hour at 4° C. Cell cycle sub-G1-fraction analysis was performed as described previously^23 using a FACS cytometer (BD FACS Calibur™, BD Biosciences, Heidelberg, Germany). Each experiment was done in triplicate.
All cells were maintained at 37° C. in an incubator under an atmosphere containing 5% CO2. After incubation the cells were washed with PBS, trypsinized, pelleted and mixed with PI buffer (containing 0.1% sodium citrate, 0.1% triton X-100, […] propidium iodide (PI)) and incubated for 1 hour at 4° C. Cell cycle sub-G1 fraction analysis was performed as described previously (Nicoletti, I. et al. (1991) J. Immunol. Methods 139, 271-279) using a flow cytometer (BD FACS Calibur™, BD Biosciences, Heidelberg, Germany). […]

Row | Compound | melting point | viability at 2.6 µM [1] | viability at 7.9 µM [1] | viability at 26 µM [1] | viability at 52 µM [1] | Induction of apoptosis, combination compound plus irinotecan (human HT-29 cancer cells)
1 | COc1cc(C2=C(c3c[nH]c4ccc(Br)cc34)C(=O)NC2=O)cc(OC)c1OC [Example 11, 3-(5-Bromo-1H-indol-3-yl)-4-(3,4,5-trimethoxyphenyl)-maleinimide] | 259 to 262 °C |  |  |  |  | 
2 | COc1cc(C2=C(c3cn(CCCN(C)C)c4ccccc34)C(=O)NC2=O)cc(OC)c1OC [Example 6, 3-{1-[3-(Dimethylamino)propyl]-1H-indol-3-yl}-4-(3,4,5-trimethoxyphenyl)maleinimide] | 187 to 188 °C | 39.3 ± 2.6% | 38.5 ± 2.43% | 15.8 ± 1.35% | 19.4 ± 1.32% | 
3 | COc1cc(C2=C(c3c[nH]c4ccc(F)cc34)C(=O)NC2=O)cc(OC)c1OC [Example 10, 3-(5-Fluoro-1H-indol-3-yl)-4-(3,4,5-trimethoxyphenyl)-maleinimide] | 232 to 233 °C |  |  |  |  | 
4 | COc1cc(C2=C(c3cn(CCN(C)C)c4ccccc34)C(=O)NC2=O)cc(OC)c1OC [Example 5, 3-{1-[2-(Dimethylamino)ethyl]-1H-indol-3-yl}-4-(3,4,5-trimethoxyphenyl)-maleinimide] | 184 to 185 °C | 68.5 ± 8.69% | 52.6 ± 0.53% | 32.2 ± 0.9% | 15 ± 0.9% | 
5 | COc1cc(C2=C(c3cn(CCO)c4ccccc34)C(=O)NC2=O)cc(OC)c1OC [Example 3, 3-(1-[2-Hydroxyethyl]-1H-indol-3-yl)-4-(3,4,5-trimethoxyphenyl)-maleinimide] | 195 to 196 °C | 68.8 ± 2.48% | 70.2 ± 3.72% | 45.7 ± 2.18% | 28.7 ± 0.55% | 
6 | COc1cc(C2=C(c3cn(CCN4CCCCC4)c4ccccc34)C(=O)NC2=O)cc(OC)c1OC [Example 7, 3-{1-[2-(Piperidin-1-yl)ethyl]-1H-indol-3-yl}-4-(3,4,5-trimethoxyphenyl)-maleinimide] | 179 to 180 °C | 86.5 ± 2.16% | 56.9 ± 3.02% | 20.1 ± 1.36% | 24.3 ± 0.98% | 
7 | COc1cc(C2=C(c3cn(CCCN)c4ccccc34)C(=O)NC2=O)cc(OC)c1OC.Cl [Example 2, 3-(1-[3-Ammoniopropyl]-1H-indol-3-yl)-4-(3,4,5-trimethoxyphenyl)-maleinimide-chloride] | 274 to 275 °C | 45.8 ± 3.25% | 36.4 ± 1.77% | 17.65 ± 0.13% | 6.68 ± 0.29% | 
8 | COc1cc(C2=C(c3cn(CCN)c4ccccc34)C(=O)NC2=O)cc(OC)c1OC.Cl [Example 1, 3-(1-[2-Ammonioethyl]-1H-indol-3-yl)-4-(3,4,5-trimethoxyphenyl)-maleinimide-chloride] | 277.1 °C | 32.3 ± 1.07% | 29.3 ± 2.09% | 12.5 ± 0.39% | 8.95 ± 0.65% | 51.00 ± 0.56%
9 | COc1cc(C2=C(c3cn(CCCN4CCN(C)CC4)c4ccccc34)C(=O)NC2=O)cc(OC)c1OC [Example 9, 3-{1-[3-(4-Methylhexahydro-1-pyrazindiylium)propyl]-1H-indol-3-yl}-4-(3,4,5-trimethoxyphenyl)-maleinimide dichloride] | 225 to 226 °C | 66.5 ± 3.1% | 49.9 ± 1.32% | 22.6 ± 1.16% | 15.3 ± 1.21% | 
10 | COc1cc(C2=C(c3c[nH]c4cccnc34)C(=O)NC2=O)cc(OC)c1OC [Example 12, 3-(4-Azaindol-3-yl)-4-(3,4,5-trimethoxyphenyl)-1H-pyrrol-2,5-dione] | 274 to 275 °C |  |  |  |  | 
11 | COc1cc(C2=C(c3cn(CCN4CCOCC4)c4ccccc34)C(=O)NC2=O)cc(OC)c1OC [Example 8, 3-{1-(2-Morpholinoethyl)-1H-indol-3-yl}-4-(3,4,5-trimethoxyphenyl)-maleinimide] | 238 to 239 °C | 81.1 ± 2.99% | 84.1 ± 2.18% | 53.39 ± 0.1% | 39.3 ± 1.31% | 
12 | COc1cc(C2=C(c3cn(CCCO)c4ccccc34)C(=O)NC2=O)cc(OC)c1OC [Example 4, 3-(1-[3-Hydroxypropyl]-1H-indol-3-yl)-4-(3,4,5-trimethoxyphenyl)-maleinimide] | 160 °C | 37.9 ± 1.3% | 34.7 ± 0.78% | 27.7 ± 1.23% | 25.4 ± 2.26% | 
